ChEMBL document CHEMBL3872248, “Discovery and initial optimization of alkoxyanthranilic acid derivatives as inhibitors of HCV NS5B polymerase” (Bioorg Med Chem Lett, 2017)
Calls of active or inactive are those of the source. The calls are words filed in the database; no cut-off is given here.

Test system: Hepatitis C virus
Assay: Antiviral activity against HCV genotype 1b Con1 expressing C-terminal truncated NS5B assessed as inhibition of viral RNA production at 50 uM by high throughput screening method
Format: functional
Conditions: Hepacivirus hominis

| SMILES | inhibition |
| --- | --- |
| O=C(Nc1c(OCc2ccc(Cl)cc2)cccc1C(=O)O)c1ccccc1 | Active |

Test system: not listed separately
Assay: Inhibition of wild-type HCV genotype 1b Con1 C-terminal truncated NS5B RNA dependent RNA polymerase expressed in Escherichia coli BL21(DE3) Star assessed as inhibition of [alpha-32P]UTP incorporation using polyrA/T12 as template/primer measured after 60 mins by TopCount NXT method
Set-up: species or system Hepatitis C virus (isolate Con1)
Conditions: not given

| IC50 [µM] | SMILES |
| --- | --- |
| 1.2 | O=C(O)COc1ccccc1C(=O)Nc1c(OCc2ccc(Cl)cc2)cccc1C(=O)O |
| > 50 | CN(C(=O)c1ccccc1)c1c(OCc2ccc(Cl)cc2)cccc1C(=O)O |
| 25 | O=C(Nc1c(OCc2ccc(Cl)cc2)cccc1-c1nnn[nH]1)c1ccccc1 |
| 15 | CS(=O)(=O)NC(=O)c1ccc(OCc2ccc(Cl)cc2)c(NC(=O)c2ccccc2)c1 |
| 10 | O=C(O)Cc1cccc(OCc2ccc(Cl)cc2)c1NC(=O)c1ccccc1 |
| 11 | O=C(O)CCCOc1cccc2c1CN(c1c(OCc3ccc(Cl)cc3)cccc1C(=O)O)C2=O |
| 24 | CS(=O)(=O)NC(=O)c1cccc(OCc2ccc(Cl)cc2)c1NC(=O)c1ccccc1 |
| 2.1 | O=C(O)CCCOc1ccccc1C(=O)Nc1c(OCc2ccc(Cl)cc2)cccc1C(=O)O |
| 0.88 | O=C(O)CNC(=O)c1ccc(OCc2ccc(Cl)cc2)c(N2Cc3ccccc3C2=O)c1 |
| 6.2 | O=C(O)CNC(=O)c1ccc(OCc2ccc(Cl)cc2)c(NC(=O)c2ccccc2)c1 |
| 8.7 | O=C(O)c1cccc(OCc2ccc(Cl)cc2)c1N1Cc2ccccc2C1=O |
| 4.6 | O=C(Nc1c(OCc2ccc(Cl)cc2)cccc1C(=O)O)c1ccccc1O |
| 1.7 | O=C(O)/C=C/c1cccc2c1CN(c1c(OCc3ccc(Cl)cc3)cccc1C(=O)O)C2=O |
| > 50 | O=C(NCCO)c1ccc(OCc2ccc(Cl)cc2)c(NC(=O)c2ccccc2)c1 |
| 4.4 | O=C(O)COc1cccc2c1CN(c1c(OCc3ccc(Cl)cc3)cccc1C(=O)O)C2=O |
| 8.3 | O=C(O)c1ccc(OCc2ccc(Cl)cc2)c(NC(=O)c2ccccc2)c1 |
| 32 | O=C(O)c1cccc(OCc2ccc(Cl)cc2)c1N1CCCc2ccccc2C1=O |
| > 50 | O=C(Nc1c(OCc2ccc(Cl)cc2)cccc1C(=O)NCCO)c1ccccc1 |
| 6.6 | O=C(O)c1cccc(OCc2ccc(Cl)cc2)c1N1Cc2c(O)cccc2C1=O |

| SMILES | IC50 [µM] |
| --- | --- |
| O=C(Nc1c(OCc2ccc(Cl)cc2)cccc1C(=O)O)c1ccccc1 | 8.4 |

Test system: Hepatitis C virus
Assay: Antiviral activity against HCV genotype 1b Con1 expressing NS3 protease infected in human Huh-7 cells assessed as reduction in viral RNA replication measured after 3 days by EnduRen-based luciferase reporter gene assay
Format: functional, cell-based, Hepacivirus hominis
Conditions: genotype 1b Con1, Huh-7, 72 h

| EC50 [µM] | SMILES |
| --- | --- |
| > 100 | O=C(O)CNC(=O)c1ccc(OCc2ccc(Cl)cc2)c(N2Cc3ccccc3C2=O)c1 |

Biological target: RNA-directed RNA polymerase (Hepacivirus hominis, UniProt O39930, C316Y)
Sequence (O39930 entry or part of it C316Y): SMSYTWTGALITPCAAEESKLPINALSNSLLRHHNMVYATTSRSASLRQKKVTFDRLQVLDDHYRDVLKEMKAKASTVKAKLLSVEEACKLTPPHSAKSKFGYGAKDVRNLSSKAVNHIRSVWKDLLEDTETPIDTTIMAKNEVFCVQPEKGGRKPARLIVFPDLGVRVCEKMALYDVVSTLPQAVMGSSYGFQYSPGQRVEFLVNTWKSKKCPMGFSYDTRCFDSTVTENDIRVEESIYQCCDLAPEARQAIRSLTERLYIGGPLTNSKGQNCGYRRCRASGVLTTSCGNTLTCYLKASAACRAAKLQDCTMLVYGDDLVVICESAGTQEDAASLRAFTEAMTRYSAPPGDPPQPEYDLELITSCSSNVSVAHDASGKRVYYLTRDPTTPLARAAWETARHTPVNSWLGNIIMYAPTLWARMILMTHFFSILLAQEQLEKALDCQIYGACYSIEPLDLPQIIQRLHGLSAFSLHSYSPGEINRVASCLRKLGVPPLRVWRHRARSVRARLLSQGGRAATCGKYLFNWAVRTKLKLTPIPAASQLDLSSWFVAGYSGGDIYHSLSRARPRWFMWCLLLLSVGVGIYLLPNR
Assay: Inhibition of wild-type HCV genotype 1b Con1 NS5B RNA dependent RNA polymerase C316Y mutant expressed in Escherichia coli BL21(DE3) Star assessed as inhibition of [alpha-32P]UTP incorporation using polyrA/T12 as template/primer measured after 60 mins by TopCount NXT method
Set-up: species or system Hepatitis C virus (isolate Con1)
Conditions: not given

| SMILES | IC50 [µM] |
| --- | --- |
| O=C(Nc1c(OCc2ccc(Cl)cc2)cccc1C(=O)O)c1ccccc1 | > 50 |
